Our source for the IC50 values is patent US10898481B2 (priority 2018, dated 2021).

Each structure is given as a SMILES string. A value given as a limit tells only on which side of the number the result lay.

Assay [1] addresses hADORA1/CHO (hA1 expressing) cells (Homo sapiens (Human), UniProt P30542). Nature of the assay: cell-based. The conditions noted are these: FLIPR inhibition, 10 μM adenosine, read-out: cAMP & FLIPR IC50 (nM) hA1.
A further assay addresses hA2b/CHO (Homo sapiens (Human), UniProt P29275). Nature of the assay: cAMP inhibition assay in hA2b/CHO cells, 10 μM adenosine.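 Also: cells exposed to compound 30 min at 37 °C, then stimulated with adenosine a further 30 min, cAMP read after 60 min at room temperature.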 In kind it is cell-based. The conditions noted are these: read-out: cAMP & FLIPR IC50 (nM) hA2b.
In another assay the target is mA2a/CHO (Mus musculus (Mouse), UniProt Q60613). Nature of the assay: cAMP inhibition assay in mA2a/CHO cells, 10 μM adenosine.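 Also: compounds preincubated 30 min at 37 °C before the adenosine challenge, then 30 min further stimulation, readout after 60 min detection reagent incubation at room temperature in 384-well plates.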 In kind it is cell-based. Conditions: read-out: cAMP & FLIPR IC50 (nM) mA2a.
mA2a/CHO, sequence (Q60613 whole entry): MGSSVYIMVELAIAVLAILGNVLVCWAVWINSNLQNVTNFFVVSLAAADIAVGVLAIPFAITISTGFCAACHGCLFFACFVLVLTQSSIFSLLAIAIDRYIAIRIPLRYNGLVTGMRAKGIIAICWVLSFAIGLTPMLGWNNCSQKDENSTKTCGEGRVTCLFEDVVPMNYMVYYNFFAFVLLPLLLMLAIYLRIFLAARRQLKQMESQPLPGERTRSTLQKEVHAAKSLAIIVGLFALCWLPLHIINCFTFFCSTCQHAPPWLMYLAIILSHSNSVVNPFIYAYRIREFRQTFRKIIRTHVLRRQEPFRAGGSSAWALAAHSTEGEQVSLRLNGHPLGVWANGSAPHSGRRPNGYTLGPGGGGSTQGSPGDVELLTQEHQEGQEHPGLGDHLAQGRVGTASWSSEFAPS
A further assay deals with hA2a/CHO (Homo sapiens (Human), UniProt P29274). In words: cAMP inhibition assay in hA2a/CHO cells, 10 μM adenosine.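 Also: compounds added to cells 30 min ahead of adenosine, then a further 30 min at 37 °C with adenosine before cAMP detection.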 In kind it is cell-based. The conditions noted are these: read-out: cAMP & FLIPR IC50 (nM) hA2a.
hA2a/CHO, sequence (P29274 whole entry): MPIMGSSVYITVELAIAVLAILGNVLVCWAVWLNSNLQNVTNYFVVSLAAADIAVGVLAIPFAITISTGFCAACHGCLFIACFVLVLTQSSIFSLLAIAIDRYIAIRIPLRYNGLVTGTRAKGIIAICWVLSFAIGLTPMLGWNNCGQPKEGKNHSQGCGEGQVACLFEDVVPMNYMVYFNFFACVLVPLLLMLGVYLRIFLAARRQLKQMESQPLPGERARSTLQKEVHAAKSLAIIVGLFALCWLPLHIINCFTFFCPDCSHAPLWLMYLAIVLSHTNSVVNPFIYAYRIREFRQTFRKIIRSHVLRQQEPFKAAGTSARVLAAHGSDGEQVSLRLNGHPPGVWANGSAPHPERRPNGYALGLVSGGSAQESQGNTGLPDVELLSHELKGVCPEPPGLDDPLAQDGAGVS

hADORA1/CHO (hA1 expressing) cells, sequence (P30542 whole entry): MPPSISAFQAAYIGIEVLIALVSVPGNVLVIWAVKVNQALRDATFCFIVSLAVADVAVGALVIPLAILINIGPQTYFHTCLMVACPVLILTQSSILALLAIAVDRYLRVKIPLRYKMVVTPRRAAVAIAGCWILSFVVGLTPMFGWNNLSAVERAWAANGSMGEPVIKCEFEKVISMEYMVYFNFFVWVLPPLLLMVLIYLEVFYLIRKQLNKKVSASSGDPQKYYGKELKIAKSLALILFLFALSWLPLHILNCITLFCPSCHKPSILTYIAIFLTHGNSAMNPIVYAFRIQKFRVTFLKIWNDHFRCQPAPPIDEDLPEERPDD
hA2b/CHO, sequence (P29275 whole entry): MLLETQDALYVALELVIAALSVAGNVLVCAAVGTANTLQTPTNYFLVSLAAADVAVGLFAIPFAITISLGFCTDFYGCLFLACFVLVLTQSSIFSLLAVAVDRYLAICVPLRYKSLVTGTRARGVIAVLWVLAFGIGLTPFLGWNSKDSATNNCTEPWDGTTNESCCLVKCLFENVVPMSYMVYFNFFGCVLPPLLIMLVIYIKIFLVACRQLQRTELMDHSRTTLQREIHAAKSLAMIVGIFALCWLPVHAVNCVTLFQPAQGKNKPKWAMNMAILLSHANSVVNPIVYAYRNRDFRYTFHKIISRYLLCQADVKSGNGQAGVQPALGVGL
Procedure for hA2a/CHO: (§1) hA2a/CHO, hA2b/CHO, hA3/CHO and mA2a/CHO (Genscript) were plated at 5×10^3 cells/well into 384-well polystyrene plates at the day of experiment. Compounds were pre-incubated with cells for 30 min at 37° C., 5% CO2. Then 10 μM adenosine was added to the cells and incubated for 30 min at 37° C., 5% CO2. Detection reagent (CISBIO) was added and the plates were incubated for 60 min at room temperature. The signal was captured by Envision.
Procedure for hA2b/CHO: as §1
Procedure for mA2a/CHO: as §1

Usually IC50 stands for the midpoint of a concentration-inhibition curve. Turning to `Cc1cnc2ccc(-c3nc(C(=O)NCC4CN(C)CCO4)c(N)nc3-c3ccc(F)cc3)cn12` (single isomer, unassigned; isomer 1) [Example 246, 3-amino-5-(4-fluorophenyl)-6-(3-methylimidazo[1,2-a]pyridin-6-yl)-N-((4-methylmorpholin-2-yl)methyl) pyrazine-2-carboxamide (isomer 1)], the IC50 in assay [1] came to 44 nM; on hA2b/CHO it was 1100 nM; on mA2a/CHO, 67 nM; at hA2a/CHO it was 17 nM.
As to `Cc1cnc2ccc(-c3nc(C(=O)NC[C@H](C)O)c(N)nc3-c3ncco3)cn12` [Example 146, (S)-3-amino-N-(2-hydroxypropyl)-6-(3-methylimidazo[1,2-a]pyridin-6-yl)-5-(oxazol-2-yl)pyrazine-2-carboxamide], the IC50 in assay [1] is 10000 nM; at hA2b/CHO, 256 nM; at mA2a/CHO, 101 nM; on hA2a/CHO it was 8.5 nM.
Turning to `Cc1cnc2ccc(-c3nc(C(=O)NCc4cccc(N5CC(N(C)C)C5)n4)c(N)nc3-c3ncco3)cn12` [Example 111, 3-amino-N-((6-(3-(dimethylamino)azetidin-1-yl)pyridin-2-yl)methyl)-6-(3-methylimidazo[1,2-a]pyridin-6-yl)-5-(oxazol-2-yl)pyrazine-2-carboxamide], the IC50 in assay [1] worked out at 2810 nM; at hA2b/CHO it was 81 nM; on mA2a/CHO, 6.5 nM; at hA2a/CHO it was 0.5 nM.
Consider `Cc1cnc2ccc(-c3nc(C(=O)N4CC[C@@H](N(C)C)C4)c(N)nc3-c3ccc(F)cc3)cn12` [Example 203-1, (R)-(3-amino-5-(4-fluorophenyl)-6-(3-methylimidazo[1,2-a]pyridin-6-yl)pyrazin-2-yl)(3-(dimethylamino)pyrrolidin-1-yl)methanone], for which the IC50 in assay [1] is 91 nM; at hA2b/CHO it was greater than 10000 nM; at mA2a/CHO, 161 nM; at hA2a/CHO, 15 nM.
With `CN1CCC[C@@H]1CNC(=O)c1nc(-c2ccc3ncn(C)c3c2)c(-n2nccn2)nc1N` [Example 131, (R)-3-amino-6-(1-methyl-1H-benzo[d]imidazol-6-yl)-N-((1-methylpyrrolidin-2-yl)methyl)-5-(2H-1,2,3-triazol-2-yl)pyrazine-2-carboxamide], the IC50 in assay [1] is 10000 nM; on hA2b/CHO, no less than 10000 nM; at mA2a/CHO, 2700 nM; at hA2a/CHO, 332 nM.
On to `CCc1cnn2ccc(-c3nc(C(=O)NC[C@H]4CCCN4C)c(N)nc3-c3ncco3)cc12` [Example 128, (R)-3-amino-6-(3-ethylpyrazolo[1,5-a]pyridin-5-yl)-N-((1-methylpyrrolidin-2-yl)methyl)-5-(oxazol-2-yl)pyrazine-2-carboxamide], for which the IC50 is 10000 nM in assay [1], no less than 10000 nM on hA2b/CHO, 410 nM on mA2a/CHO and 63 nM on hA2a/CHO.
`Cc1nc(CNC(=O)c2nc(-c3ccc4nccn4c3)c(-c3ncco3)nc2N)cs1` [Example 44, 3-amino-6-(imidazo[1,2-a]pyridin-6-yl)-N-((2-methylthiazol-4-yl)methyl)-5-(oxazol-2-yl)pyrazine-2-carboxamide]: the concentration for half-maximal inhibition (IC50) came out at 10000 nM in assay [1], 2110 nM at hA2b/CHO, 786 nM on mA2a/CHO and 131 nM at hA2a/CHO.
`CCc1ccccc1CNC(=O)c1nc(-c2cc(C)nc(C)c2)c(-c2ccc(F)cc2)nc1N` [Example 84, 3-amino-6-(2,6-dimethylpyridin-4-yl)-N-(2-ethylbenzyl)-5-(4-fluorophenyl) pyrazine-2-carboxamide]: the IC50 in assay [1] was 1200 nM; at hA2b/CHO, no less than 10000 nM; at mA2a/CHO it was 238 nM; at hA2a/CHO, 18 nM.
With `Cc1cnc2ccc(-c3nc(CNC(=O)[C@@H]4CCCN4C)c(N)nc3-c3ccc(F)cc3)cn12` [Example 156, (2S)—N-[[3-amino-5-(4-fluorophenyl)-6-[3-methylimidazo[1,2-a]pyridin-6-yl]pyrazin-2-yl]methyl]-1-methylpyrrolidine-2-carboxamide], the IC50 was 83 nM in assay [1], 1200 nM on hA2b/CHO, 41 nM at mA2a/CHO and 4.4 nM at hA2a/CHO.
In the case of `Cn1cc(-c2nc(C(=O)NCc3ccccc3OC(F)F)c(N)nc2-c2ccc(F)cc2)ccc1=O` [Example 72, 3-amino-N-(2-(difluoromethoxy)benzyl)-5-(4-fluorophenyl)-6-(1-methyl-6-oxo-1,6-dihydropyridin-3-yl)pyrazine-2-carboxamide], the IC50 in assay [1] is 14 nM; at hA2b/CHO it was 23 nM; at mA2a/CHO it was 8.1 nM; at hA2a/CHO, 1.3 nM.
For `Cn1cnc2ccc(-c3nc(C(=O)NCc4ncccc4NCCO)c(N)nc3-c3ccc(F)cc3)cc21` [Example 117, 3-amino-5-(4-fluorophenyl)-N-([3-[(2-hydroxyethyl)amino]pyridin-2-yl]methyl)-6-(1-methyl-1H-1,3-benzodiazol-6-yl)pyrazine-2-carboxamide], the IC50 was determined as 64 nM in assay [1], 146 nM on hA2b/CHO, 2.6 nM on mA2a/CHO and 0.7 nM at hA2a/CHO.
In the case of `Cc1cc(-c2nc(C(=O)NCc3ccccc3C)c(N)nc2-c2ccc(F)cc2)cc(C)n1` [Example 81, 3-amino-6-(2,6-dimethylpyridin-4-yl)-5-(4-fIuorophenyl)-N-(2-methylbenzyl) pyrazine-2-carboxamide], the IC50 in assay [1] is 4750 nM; on hA2b/CHO, no less than 10000 nM; at mA2a/CHO, 301 nM; on hA2a/CHO it was 98 nM.
Regarding `Cc1cc(-c2nc(C(=O)NCc3c(F)cccc3F)c(N)nc2-c2ncco2)cc(C)n1` [Example 5, 3-amino-N-(2,6-difluorobenzyl)-6-(2,6-dimethylpyridin-4-yl)-5-(oxazol-2-yl)pyrazine-2-carboxamide], the concentration for half-maximal inhibition (IC50) in assay [1] is 10000 nM; at hA2b/CHO, no less than 10000 nM; on mA2a/CHO, 219 nM; on hA2a/CHO it was 28 nM.
On to `COc1c(F)cccc1CNC(=O)c1nc(-c2cc(C)nc(C)c2)c(-c2ccc(F)cc2)nc1N` [Example 54, 3-amino-6-(2,6-dimethylpyridin-4-yl)-N-(3-fluoro-2-methoxybenzyl)-5-(4-fluorophenyl)pyrazine-2-carboxamide], for which the IC50 is 1590 nM in assay [1], no less than 10000 nM at hA2b/CHO, 2080 nM at mA2a/CHO and 117 nM at hA2a/CHO.
In the case of `Cc1cnc2ccc(-c3nc(C(=O)NC[C@@H]4CC(F)(F)CN4C)c(N)nc3-c3ncco3)cn12` [Example 161, (S)-3-amino-N-((4,4-difluoro-1-methylpyrrolidin-2-yl)methyl)-6-(3-methylimidazo[1,2-a]pyridin-6-yl)-5-(oxazol-2-yl)pyrazine-2-carboxamide], the IC50 came to 34 nM in assay [1], 98 nM at hA2b/CHO, 0.8 nM at mA2a/CHO and 0.95 nM at hA2a/CHO.
As for `Cn1cc(-c2nc(C(=O)NCc3ccccc3F)c(N)nc2-c2ncco2)ccc1=O` [Example 109, 3-amino-N-(2-fluorobenzyl)-6-(1-methyl-6-oxo-1,6-dihydropyridin-3-yl)-5-(oxazol-2-yl)pyrazine-2-carboxamide], the IC50 in assay [1] was 486 nM; on hA2b/CHO, 240 nM; on mA2a/CHO, 20 nM; at hA2a/CHO it was 13 nM.
As to `COC(C)CNC(=O)c1nc(-c2ccc3ncc(C)n3c2)c(-c2ncco2)nc1N` (racemic) [Example 228, rac-3-amino-N-(2-methoxypropyl)-6-(3-methylimidazo[1,2-a]pyridin-6-yl)-5-(oxazol-2-yl)pyrazine-2-carboxamide], the IC50 in assay [1] was determined as 2020 nM; on hA2b/CHO it was 210 nM; on mA2a/CHO it was 23 nM; at hA2a/CHO it was 2.7 nM.
For the compound `COCCCNC(=O)c1nc(-c2ccc3ncc(C)n3c2)c(-c2ncco2)nc1N` [Example 149, 3-amino-N-(3-methoxypropyl)-6-[3-methylimidazo[1,2-a]pyridin-6-yl]-5-(1,3-oxazol-2-yl)pyrazine-2-carboxamide], the IC50 was found to be 1560 nM in assay [1], 85 nM at hA2b/CHO, 7.8 nM at mA2a/CHO and 1.5 nM on hA2a/CHO.
For `CN1CCCC1CNC(=O)c1nc(-c2ccc3ncc(C(F)(F)F)n3c2)c(-c2ncco2)nc1N` (single isomer, unassigned) [Cmpd. 206], in that order: 2490 nM, 707 nM, 50 nM and 5.3 nM.
As to `Cc1scnc1CNC(=O)c1nc(-c2ccc3nccn3c2)c(-c2ncco2)nc1N` [Example 94, 3-amino-6-[imidazo[1,2-a]pyridin-6-yl]-N-[(5-methyl-1,3-thiazol-4-yl)methyl]-5-(1,3-oxazol-2-yl)pyrazine-2-carboxamide], the IC50 in assay [1] turned out to be 2960 nM; on hA2b/CHO, 76 nM; on mA2a/CHO, 34 nM; at hA2a/CHO, 3.9 nM.
With `Cc1cnc2ccc(-c3nc(C(=O)NCCN(C)c4ccccn4)c(N)nc3-c3ncco3)cn12` [Example 240, 3-amino-N-(2-(methyl(pyridin-2-yl)amino)ethyl)-6-(3-methylimidazo[1,2-a]pyridin-6-yl)-5-(oxazol-2-yl)pyrazine-2-carboxamide], the IC50 worked out at 108 nM in assay [1], 521 nM at hA2b/CHO, 65 nM on mA2a/CHO and 18 nM on hA2a/CHO.
`COc1ccccc1CNC(=O)c1nc(-c2ccc(=O)n(C(F)F)c2)c(-c2ccc(F)cc2)nc1N` [Example 76, 3-amino-6-(1-(difluoromethyl)-6-oxo-1,6-dihydropyridin-3-yl)-5-(4-fluorophenyl)-N-(2-methoxybenzyl) pyrazine-2-carboxamide]: the IC50 came out at 68 nM in assay [1], 76 nM on hA2b/CHO, 22 nM on mA2a/CHO and 4.2 nM on hA2a/CHO.
